Laboratory results published in ChEMBL document CHEMBL1146934, “Polyhydroxylated 4-thiaflavans as multipotent antioxidants: protective effect on oxidative DNA damage in vitro” (Bioorg Med Chem Lett, 2006).
Active and inactive are the calls of the source. No cut-off for these calls is given here.

How the values were obtained:
[1] = test system: Radical scavenging activity; test: Effect on CumOOH-induced oxidative damage of herring sperm DNA assessed as reduction in 8-OHdG level; type: functional; design: scale not given: the % may be the effect or the level left; settings: Clupea
[2] = test system: Radical scavenging activity; test: Effect on glutathione/ferric ion-induced oxidative damage of herring sperm DNA assessed as reduction in 8-OHdG level; type: functional; design: scale not given: the % may be the effect or the level left; settings: Clupea

| Molecule | Activity [1] | Activity [2] |
| --- | --- | --- |
| COc1ccc(C2CSc3cc(O)ccc3O2)cc1 (configuration not stated) | inactive | – |
| Oc1cc(O)c2c(c1)OC(c1ccc(O)c(O)c1)C(O)C2 (racemic) | 32% | 36% |
| VITAMIN E | 61% | 33% |
| COc1cc(OC)c2c(c1)OC(c1ccc(O)c(O)c1)CS2 (configuration not stated) | 30% | – |
| Oc1cc(O)c2c(c1)OC(c1ccc(O)c(O)c1)CS2 (configuration not stated) | 30% | 82% |
| COc1ccc(C2CSc3c(O)cc(O)cc3O2)cc1 (configuration not stated) | inactive | Active |
| COc1ccc(C2CSc3ccc(O)cc3O2)cc1 (configuration not stated) | inactive | Active |
